Where two headings read alike, the source gives them in different places.
What was measured:
[1] = test system: tonic extensor seizures in mice; details: cited from earlier work; for Effect # Protected/# Tested / Ataxia # Ataxia/# Tested: mice, intravenous, 120 min after dose; for Effect # Protected/# Tested: electroshock
[2] = test system: GAD; details: cited from earlier work
[3] = test system: mouse foot pad inflammation induced by Freund's complete adjuvant (FCA); assay: Freund's complete adjuvant induced foot pad inflammation in mice (Example 1); type: in vivo
Protocol: Mice were placed in the following administration groups, and administration occurred daily:
1) Control (no treatment) (n=4)
2) Placebo (PBS, i.p.) inoculation—(i.e. CFA only) (n=4)
3) H2 enriched PBS inoculation (i.e. CFA+H2) (n=4)
4) Lactulose inoculation at 0.5 mL/mouse (i.e. CFA+Lact) (n=4)
5) LYRICA® (i.e. CFA+Lyr) (n=5)
6) LYRICA®+H2 enriched PBS (i.e. CFA+Lyr+H2) (n=5)
7) LYRICA®+Lactulose in PBS (i.e. CFA+Lact+H2) (n=4)
CFA was injected into the mice in groups 2 through 7 above. Inflammation was induced in the mice by injection of Freund's complete adjuvant (FCA), 25 μL/foot, on day 0 as shown in FIG. 1A. […] These measurements included thickness of foot pad (level of inflammation), amount of H2 in abdominal cavity, amount of nerve growth factor (NGF) (pain marker) in foot pad, amount of Substance P (pain marker) in foot pad, and amount of IL-1β in foot pad (level of inflammation).

[4] = test system: mouse macrophage cell line (RAW264.7); assay: TNF-α production from LPS-stimulated mouse macrophages (Example 3); type: cell-based; details: LPS-stimulated RAW264.7, 24 hours, ELISA; drug 10-1000 nM, with or without H2
Protocol: The following is an in vitro experiment to test the effects of hydrogen on the Celecoxib- or Ibuprofen-mediated anti-inflammatory activities, and the results are shown in FIGS. 10 and 11.
The mouse macrophage cell line (RAW264.7) was seeded at a density of 1.0×10^5 cells/well in 96-well culture plates in Minimum Essential Medium Alpha ( ? -MEM, Sigma) supplemented with penicillin G solution (100 U/ml, GIBCO; Invitrogen, Buffalo, N.Y.), streptomycin ([…], GIBCO; Invitrogen), and gentamicin (50 ? g/ml, GIBCO; Invitrogen) containing 10% FBS in the presence or absence of H2 (300 nM/ml) for 30 min. Then the cells were exposed to LPS (0.1 mg/ml, Invivogen, San Diego, Calif.), with or without a variety of concentrations of Celecoxib or Ibuprofen (10-1000 nM). After culture of the RAW264.7 cells for 24 hours in a CO2 incubator (37° C.), the culture supernatant was harvested and subjected to TNF-α ELISA (R&D Systems).

[5] = H2 concentration in ascites fluid after ingestion (Example 2); type: in vivo, mouse; details: for H2 concentration in ascites fluid after ingestion of sugar solution: mouse abdominal cavity, ranking among sugars tested
Protocol: Lactose, glucose, galactose, fructose, mannitol, inulin, Splenda® (McNeil Nutritionals (sucralose)), Equal® (Merisant (aspartame, dextrose, and maltodextrin)), and lactulose were tested along with a control.
After 30 minutes, H2-enriched water provided approximately 40 μM H2 concentration but dropped off to approximately 15 μM after 4 hours. At 4 hours, lactulose provided over 20 μM H2 concentration.

[6] = test system: Freund's complete adjuvant-induced hind paw inflammation in mice; assay: Freund's complete adjuvant-induced hind paw inflammation in mice (Example 4); type: in vivo, mice (BALB/c); details: day 7, versus mice without lactulose
Protocol: The following experiment was performed to test the effects of Lactulose combined with Celecoxib or Ibuprofen on Freund's complete adjuvant-induced hind paw inflammation in mice, with the results shown in FIGS. 12-15.
For induction of hindpaw inflammation, mice (BALB/c; 8 w old male n=6/group) received i.pl. injection of 25 μl of complete Freund's adjuvant (CFA, diluted 1:1 with PBS, 2 mg/ml; Mycobacterium tuberculosis; Difco Laboratories, Detroit, Mich.). Lactulose (10% water) or control water alone was administered once in a day for 7 days (500 μl/day) by oral gavage using a 20-G bulb-tipped gastric gavage needle (P.O.). Celecoxib (Toronto Research Chemicals) and Ibuprofen (Enzo Life Sciences) dissolved in PBS was applied to mice once a day via intra-peritoneal (i.p.) injection (10 mg/kg/day, respectively) for 7 days. The thickness of the foot pad was measured using a digital microcaliper as mice were sacrificed on 7 day. Surgically removed hind paw tissue was homogenized in EIA-Buffer (Cayman) and subjected to mouse NGF ELISA (Millipore), PGE2 EIA (Cayman), or TNF-α ELISA (R&D systems).

## CC(C)(C)CC(CN)CC(=O)O (stereo not drawn) [neo-C5H11]
[1]; 10 mg/kg
  Effect # Protected/# Tested: 2/10
  Ataxia # Ataxia/# Tested: 0/10
[1]; 30 mg/kg
  Effect # Protected/# Tested: 4/10
  Ataxia # Ataxia/# Tested: 0/10
[1]; 100 mg/kg
  Effect # Protected/# Tested: 4/10
  Ataxia # Ataxia/# Tested: 0/10

## CCCC(CCC)C(=O)[O-].[Na+] [Sodium Valproate]
[2]; 0.05 mM
  Activation of GAD by GABA analogs expressed in %: 105%
[2]; 0.1 mM
  Activation of GAD by GABA analogs expressed in %: 115%
[2]; 0.25 mM
  Activation of GAD by GABA analogs expressed in %: 119%
  Activation of GAD by glutamate analogs expressed in %: 119%
[2]; 0.5 mM
  Activation of GAD by GABA analogs expressed in %: 124%
[2]; 1.0 mM
  Activation of GAD by GABA analogs expressed in %: 138%
  Activation of GAD by glutamate analogs expressed in %: 138%
[2]; 2.5 mM
  Activation of GAD by GABA analogs expressed in %: 207%
  Activation of GAD by glutamate analogs expressed in %: 207%

## CCC(C)C(CN)CC(=O)O (stereo not drawn) [s-C4H9]
[1]; 3 mg/kg
  Effect # Protected/# Tested: 2/10
  Ataxia # Ataxia/# Tested: 0/10
[1]; 10 mg/kg
  Effect # Protected/# Tested: 3/10
  Ataxia # Ataxia/# Tested: 0/10
[1]; 30 mg/kg
  Effect # Protected/# Tested: 2/10
  Ataxia # Ataxia/# Tested: 0/10

## CC(C)(CN)CC(=O)O [(CH3)2]
[1]; 30 mg/kg
  Effect # Protected/# Tested: 4/5
  Ataxia # Ataxia/# Tested: 0/5
[1]; 100 mg/kg
  Effect # Protected/# Tested: 4/5
  Ataxia # Ataxia/# Tested: 0/5

## C[C@H](N)CCC(=O)O [H(S)]
[2]; 0.25 mM
  Activation of GAD by GABA analogs expressed in %: 100%
[2]; 1.0 mM
  Activation of GAD by GABA analogs expressed in %: 100%
[2]; 2.5 mM
  Activation of GAD by GABA analogs expressed in %: 100%

## C[C@@H](N)CCC(=O)O [H(R)]
[2]; 0.25 mM
  Activation of GAD by GABA analogs expressed in %: 108%
[2]; 1.0 mM
  Activation of GAD by GABA analogs expressed in %: 125%
[2]; 2.5 mM
  Activation of GAD by GABA analogs expressed in %: 173%

## NCC1(CC(=O)O)CCCCC1 [GABAPENTIN, gabapentin]
[2]; 0.25 mM
  Activation of GAD by GABA analogs expressed in %: 105%
[2]; 1.0 mM
  Activation of GAD by GABA analogs expressed in %: 145%
[2]; 2.5 mM
  Activation of GAD by GABA analogs expressed in %: 178%

## CC(C)CC(CN)CC(=O)O (racemic) [(R,S)—i-C4H9, H, 4-amino-3-(2-methylpropyl)butanoic acid]
[1]; compared with the other analogs
  potency when tested in vivo: more potent than the other analogs
[2]; compared with the other analogs tested
  activating GAD in vitro: least effective one of the analogs tested

## CC(C)C[C@H](CN)CC(=O)O [LYRICA®, (S)-(+)-4-amino-3-(2-methylpropyl)butanoic acid]
[3]; CFA-injected mice
  IL-1β in tissue (level of inflammation): slightly reduced levels of inflammation compared to placebo group 2
  Substance P (pain marker) in tissue: reduction in the marker compared to the placebo group 2

## CC(C)(C)C(CN)CC(=O)O (stereo not drawn) [t-C4H9]
[1]; 10 mg/kg
  Effect # Protected/# Tested: 2/10
  Ataxia # Ataxia/# Tested: 0/10
[1]; 30 mg/kg
  Effect # Protected/# Tested: 2/10
  Ataxia # Ataxia/# Tested: 0/10
[1]; 100 mg/kg
  Effect # Protected/# Tested: 5/10
  Ataxia # Ataxia/# Tested: 0/10

## CC(C)Cc1ccc(C(C)C(=O)O)cc1 (racemic) [ibuprofen, (RS)-2-(4-(2-methylpropyl)phenyl)propanoic acid]
[4]
  TNF-α production: TNF-α suppression

## CC(CN)CC(=O)O (racemic) [(R,S)—CH3]
[1]; 10 mg/kg
  Effect # Protected/# Tested: 0/5
  Ataxia # Ataxia/# Tested: 0/5
[1]; 30 mg/kg
  Effect # Protected/# Tested: 4/5
  Ataxia # Ataxia/# Tested: 0/5
[1]; 100 mg/kg
  Effect # Protected/# Tested: 3/5
  Ataxia # Ataxia/# Tested: 0/5

## inulin
[5]
  H2 concentration in ascites fluid after ingestion of sugar solution: next highest concentration

## CC(C)CC(CN)CC(=O)O (stereo not drawn) [i-C4H9, 4-amino-3-(2-methylpropyl)butanoic acid]
[1]; 0.3 mg/kg
  Effect # Protected/# Tested: 1/10
[1]; 0.8 mg/kg
  Effect # Protected/# Tested: 3/10
[1]; 2.0 mg/kg
  Effect # Protected/# Tested: 5/10
[1]; 5.5 mg/kg
  Effect # Protected/# Tested: 7/10

## CC(N)CCC(=O)O (racemic) [H(R,S)]
[2]; 0.25 mM
  Activation of GAD by GABA analogs expressed in %: 104%
[2]; 1.0 mM
  Activation of GAD by GABA analogs expressed in %: 111%
[2]; 2.5 mM
  Activation of GAD by GABA analogs expressed in %: 140%

## OC[C@H]1O[C@@H](O[C@@H]2[C@@H](CO)OC(O)(CO)[C@H]2O)[C@H](O)[C@@H](O)[C@H]1O (mixture of isomers) [Lactulose, lactulose]
[3]; day 8, CFA-injected mice
  H2 concentration in the abdomen: highest
[5]; after 4 hours
  H2 concentration in ascites fluid: over 20 μM
[5]
  H2 concentration in ascites fluid after ingestion of sugar solution: highest concentration of H2 in ascites fluid
[6]; lactulose 10% P.O. 500 μl/day, drug 10 mg/kg/day i.p.
  foot pad swelling: reduced
[6]
  NGF in inflamed foot pads: reduced
  amount of PGE2 in inflamed foot pads: reduced
  amount of TNF-α in inflamed foot pads: greatly reduced
